Legend:
Type in all cases: cell-based, rat
[1] = system: cultured cortical neurons; test: Neurofilament content in cultured cortical neurons
Experimental: Dissociated cortical neuron cultures were prepared as previously described [Pong et al., Exp Neurol. 2001 September; 171(1):84–97 (2001)]. Briefly, embryonic day 15 rat fetuses were collected and dissected in ice-cold PBS. Dissected cortices were pooled together and transferred to an enzymatic dissociation medium containing papain. After 30 min, the tissue was mechanically triturated with a fire-polished glass Pasteur pipette. Single-cell suspensions in complete media were seeded on poly-L-ornithine and laminin coated 96-well plates. 24 hours later, cultures were treated with various concentrations of compound of formula (I) for 72 hours. The cultures were then fixed and stained with a neurofilament primary antibody and a peroxidase-tagged secondary antibody. A peroxidase substrate (K-Blue Max) was added and the colorimetric change was measure on a colorimetric plate reader.

[2] = system: cultured dopaminergic neurons; test: High-affinity 3H-dopamine uptake after MPP+ induced toxicity
Experimental: Mesencephalic dopaminergic neuron cultures were prepared as previously described in Pong et al., J Neurochem. 69: 986–994 (1997). Embryonic day 15 (E15) rat fetuses were collected and dissected in ice-cold phosphate-buffered saline (PBS). The ventral piece of tissue compromising the mesencephalic dopaminergic region was dissected out. Dissected pieces of tissue were pooled together and transferred to an enzymatic dissociation medium containing 20 IU/ml papain in Earle's balanced salt solution (Worthington Biochemical, Freehold, N.J., U.S.A.) and incubated for 60 minutes at 37° C. After enzymatic dissociation, the papain solution was aspirated and the tissue mechanically triturated with a fire-polished glass Pasteur pipette in complete medium [equal volumes of minimum essential medium (MEM) and F-12 nutrient mixture (Gibco BRL) supplemented with 0.1 mg/ml apotransferrin and 2.5 μg/ml insulin] containing 2,000 IU/ml DNase and 10 mg/ml ovomucoid protease inhibitor.
For dopamine uptake experiments, single-cell suspensions in complete media were seeded on poly-L-ornithine and laminin coated 24-well plates. The cultures were maintained for seven days prior to experimentation. Cultures were pretreated with various concentrations of the compound of formula (I) (washed with PBS and diluted with media to concentrations of 1 nM to 1000 nM) for 24 hours, then exposed to 10 μM the neurotoxin 1-methyl-4-phenylpyridinium (MPP^+) for 1 hour to assess the neuroprotective effect of the compound of formula (I) in cell culture. Following the 1 hour incubation, media was exchanged three times and fresh compound was added for an additional 48 hours.
More particularly, after 48 hours growth of mesencephalic dopaminergic neuron cultures following MPP^+ exposure, high-affinity ^3H-dopamine uptake was performed using a modified method described by Prochiantz et al., Nature 293: 570–572 (1981). Cultures were washed with pre-warmed phosphate-buffered saline (PBS) containing 5.6 mM glucose and 1 mM ascorbic acid. Cultures were then incubated for 15 minutes at 37° C. with 50 nM ^3H-dopamine (31 Ci/mmol, Du Pont-NEN, Wilmington, Del., U.S.A.). The cultures were washed twice with buffer and lysed with 0.5 N NaOH. The lysate was transferred to a scintillation vial containing Ultima Gold scintillation cocktail and radioactivity was determined with a liquid scintillation counter. Alternatively, culture lysates can be washed twice with buffer, incubated for 2 hours at room temperature with Optiphase Supermix scintillation cocktail (Wallac Scintillation Products, Gaithersburg, Md., USA), and radioactivity measured with a liquid scintillation counter.

[3] = system: cultured cortical neurons; test: Neurite outgrowth (total neurite length per cell) in cultured cortical neurons; set-up: unit of the concentration uncertain; settings: 72 hours
Experimental: Dissociated cortical neuron cultures were prepared as previously described (Pong et al., cited above, 2001). Briefly, embryonic day 15 rat fetuses were collected and dissected in ice-cold PBS. Dissected cortices were pooled together and transferred to an enzymatic dissociation medium containing papain. After 30 minutes, the tissue was mechanically triturated with a fire-polished glass Pasteur pipette. Single-cell suspensions in complete media were seeded on poly-L-ornithine and laminin coated 96-well plates. After 24 hours, cultures were treated with various concentrations of the compound of formula I for 72 hours. The cultures were then fixed and stained with an anti-tubulin primary antibody (TUJ-1) and a fluorescent-tagged secondary antibody. Neurite outgrowth was determined by using the Enhanced Neurite Outgrowth (ENO) algorithm with the Cellomics ArrayScan and expressed as total neurite length per cell.

[4] = system: cultured dorsal root ganglia; test: Neurite outgrowth (total neurite length per cell) in cultured dorsal root ganglia; set-up: unit of the concentration uncertain; settings: 72 hours
Experimental: Dissociated dorsal root ganglia cultures were prepared as previously described [A. Wood et al., “Stimulation of neurite outgrowth by immunophilin ligands: quantitative analysis by Cellomics Array scan” Society for Neuroscience (2004), abstract 104.3] Briefly, postnatal day 3–5 rat pups were euthanized. The spinal columns were removed and individual dorsal root ganglia (DRG) were dissected out. Dissected DRG were pooled together and transferred to an enzymatic dissociation medium containing papain. After 60 minutes, the tissue was mechanically triturated with a fire-polished glass Pasteur pipette. Single-cell suspensions in complete media were seeded on poly-L-ornithine and laminin coated 96-well plates. After 24 hours, cultures were treated with various concentrations of the compound of formula I for 72 hours. The cultures were then fixed and stained with an anti-tubulin primary antibody (TUJ-1) and a fluorescent-tagged secondary antibody. Neurite outgrowth was determined by using the Enhanced Neurite Outgrowth (ENO) algorithm with the Cellomics ArrayScan and expressed as total neurite length per cell.

## CC/C1=C\CC(/C(C)=C/C(C)C(C)O)OC(=O)C2CCCN2C(=O)C(=O)C2(O)OC(CCC2C)CC(O)C(C)C(O)CC(O)CC(O)/C(C)=C/C(C)CC(C)C1O (stereo not shown) [Compound (I), prolylmeridamycin]
[1]; 10 nM, 72 hours
  NEUROFILAMENT CONTENT (FOLD-INCREASE ABOVE UNTREATED CONTROL): 1.54 FOLD-INCREASE ABOVE UNTREATED CONTROL
[1]; 100 nM, 72 hours
  NEUROFILAMENT CONTENT (FOLD-INCREASE ABOVE UNTREATED CONTROL): 2.22 FOLD-INCREASE ABOVE UNTREATED CONTROL
[1]; 1 μM, 72 hours
  NEUROFILAMENT CONTENT (FOLD-INCREASE ABOVE UNTREATED CONTROL): 2.34 FOLD-INCREASE ABOVE UNTREATED CONTROL
[1]; 10 μM, 72 hours
  NEUROFILAMENT CONTENT (FOLD-INCREASE ABOVE UNTREATED CONTROL): 2.26 FOLD-INCREASE ABOVE UNTREATED CONTROL
[1]; Rattus norvegicus, Cortical neurone, 72 hours, neurofilament content, read-out: EC50, increased neuronal survival in cultured cortical neurons
  EC50: 0.021 µM
[1]; similar study with meridamycin
  potency compared with meridamycin: more potent
[2]; 1 nM compound, 24 h pretreatment, 10 μM MPP+ 1 hour, 48 h after
  3H-DOPAMINE UPTAKE (% UNTREATED CONTROL): 45% UNTREATED CONTROL
[2]; 10 nM compound, 24 h pretreatment, 10 μM MPP+ 1 hour, 48 h after
  3H-DOPAMINE UPTAKE (% UNTREATED CONTROL): 52% UNTREATED CONTROL
[2]; 100 nM compound, 24 h pretreatment, 10 μM MPP+ 1 hour, 48 h after
  3H-DOPAMINE UPTAKE (% UNTREATED CONTROL): 61% UNTREATED CONTROL
[2]; 1000 nM compound, 24 h pretreatment, 10 μM MPP+ 1 hour, 48 h after
  3H-DOPAMINE UPTAKE (% UNTREATED CONTROL): 72% UNTREATED CONTROL
[2]; Rattus norvegicus, Neuron, relative to maximum protection (84% uptake) afforded by 10 ng/mL GDNF, read-out: EC50, neuroprotection against MPP+-induced neurotoxicity
  EC50: 0.11 µM
[2]; similar study with meridamycin
  potency compared with meridamycin: more potent
[3]; 10 nM
  Total Neurite Length (% Above Control): 30% Above Control
[3]; 100 nM
  Total Neurite Length (% Above Control): 51% Above Control
[3]; 1 (unit uncertain)
  Total Neurite Length (% Above Control): 120% Above Control
[3]; 10 (unit uncertain)
  Total Neurite Length (% Above Control): 178% Above Control
[4]; 10 nM
  Total Neurite Length (% Above Control): 2% Above Control
[4]; 100 nM
  Total Neurite Length (% Above Control): 7% Above Control
[4]; 1 (unit uncertain)
  Total Neurite Length (% Above Control): 21% Above Control
[4]; 10 (unit uncertain)
  Total Neurite Length (% Above Control): 44% Above Control

## C[n+]1ccc(-c2ccccc2)cc1 [MPP^+, 1-methyl-4-phenylpyridinium, reference compound]
[2]; 10 μM MPP+ for 1 hour, no test compound
  3H-DOPAMINE UPTAKE (% UNTREATED CONTROL): 40% UNTREATED CONTROL

B1: glial cell line-derived neurotrophic factor (protein, UniProt P39905 78-211, looked up)
Glial cell line-derived …: SPDKQMAVLPRRERNRQAAAANPENSRGKGRRGQRGKNRGCVLTAIHLNVTDLGLGYETKEELIFRYCSGSCDAAETTYDKILKNLSRNRRLVSDKVGQACCRPIAFDDDLSFLDDNLVYHILRKHSAKRCGCI
notes: glial cell line-derived neurotrophic factor, gives maximum protection in the dopamine uptake assay
[2]; 10 ng/mL GDNF, MPP+-induced neurotoxicity
  maximum protection (% uptake): 84 % uptake

Reference: patent US7247650B2, “Macrolides and methods for producing same” (Wyeth, priority 2004, dated 2007)
